From patent US9913843B2, “Protein kinase C inhibitors and uses thereof” (Rigel Pharmaceuticals, Inc., priority 2012, dated 2018)
Read-outs that look alike come from different tables or passages of the source.

Tested on: PKC mediated IL-2 production in human primary T cells
Test: IL-2 ELISA, human primary T cell, anti CD3+CD28+ (whole cell functional assay for PKC mediated IL-2 production)
Type: cell-based
In short: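 Primary human T cells (PBMC-derived, expanded on plate-bound anti-CD3/CD28 with IL-2, then IL-2-washed) were pre-incubated 1 h at 37 °C with compound, then stimulated on 1 μg/ml anti-CD3 plus 5 μg/ml anti-CD28. After 24 h at 37 °C, secreted IL-2 was measured by ELISA; counter assay used 0.5 ng/ml PMA plus 0.1 μM ionomycin (final).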

[1] = 24 h, human primary T cells stimulated with anti-CD3 + anti-CD28, IL-2 by ELISA, read-out: IC50 for blocking IL-2 production
[2] = human primary T cells stimulated with anti-CD3 + anti-CD28, 24 h, IL-2 by ELISA, 8 pt, read-out: IL2 ELISA, Human primary T cell, anti-CD3 + CD28, 8 pt (IC50)

| Compound | IC50 [1] [µM] | IC50 [2] [µM] |
| --- | --- | --- |
| Cc1nnnn1-c1cc(Nc2ncc(C(F)(F)F)c(NC[C@@H]3CCCN4CCCC[C@H]34)n2)ccc1F [Compound 103, N2-(4-fluoro-3-(5-methyl-1H-tetrazol-1-yl)phenyl)-5-(trifluoromethyl)-N4-(((1S,9aR)-octahydro-1H-quinolizin-1-yl)methyl)pyrimidine-2,4-diamine] | < 30 | 26.6 |
| Cc1nnnn1-c1ccc(F)c(Nc2ncc(C(F)(F)F)c(NC[C@@H]3CCCN4CCCC[C@H]34)n2)c1 [Compound 104, N2-(2-fluoro-5-(5-methyl-1H-tetrazol-1-yl)phenyl)-5-(trifluoromethyl)-N4-(((1S,9aR)-octahydro-1H-quinolizin-1-yl)methyl)pyrimidine-2,4-diamine] | < 30 | 26.8 |
| COc1ccc(Nc2ncc(C(F)(F)F)c(NC[C@@H]3CCCN4CCCC[C@H]34)n2)cc1-n1nnnc1C [Compound 105, 5-(trifluoromethyl)-N4-(((1S,9aR)-octahydro-1H-quinolizin-1-yl)methyl)-N2-(4-methoxy-3-(5-methyl-1H-tetrazol-1-yl)phenyl)pyrimidine-2,4-diamine] | < 30 | 11.8 |
| COc1cc(Nc2ncc(C(F)(F)F)c(NC[C@@H]3CCCN4CCCC[C@H]34)n2)cc(-n2nnnc2C)c1 [Compound 106, 5-(trifluoromethyl)-N4-(((1S,9aR)-octahydro-1H-quinolizin-1-yl)methyl)-N2-(3-methoxy-5-(5-methyl-1H-tetrazol-1-yl)phenyl)pyrimidine-2,4-diamine] | < 30 | 21.5 |
| N#Cc1cccc(Nc2ncc(C(F)(F)F)c(NC[C@@H]3CCCN4CCCC[C@H]34)n2)c1 [Compound 107, 3-(4-(((1S,9aR)-octahydro-1H-quinolizin-1-yl)methylamino)-5-(trifluoromethyl)pyrimidin-2-ylamino)benzonitrile] | < 30 | 17.1 |
| Cc1ccc(Nc2ncc(C(F)(F)F)c(NC[C@@H]3CCCN4CCCC[C@H]34)n2)cc1C#N [Compound 108, 5-(4-(((1S,9aR)-octahydro-1H-quinolizin-1-yl)methylamino)-5-(trifluoromethyl)pyrimidin-2-ylamino)-2-methylbenzonitrile] | < 30 |  |
| N#Cc1cc(Nc2ncc(C(F)(F)F)c(NC[C@@H]3CCCN4CCCC[C@H]34)n2)ccc1C1CC1 [Compound 109, 5-(4-(((1S,9aR)-octahydro-1H-quinolizin-1-yl)methylamino)-5-(trifluoromethyl)pyrimidin-2-ylamino)-2-cyclopropylbenzonitrile] | < 30 | 6.58 |
| N#Cc1cc(Nc2ncc(C(F)(F)F)c(NC[C@@H]3CCCN4CCCC[C@H]34)n2)c(F)cc1C1CC1 [Compound 110, 5-(4-(((1S,9aR)-octahydro-1H-quinolizin-1-yl)methylamino)-5-(trifluoromethyl)pyrimidin-2-ylamino)-2-cyclopropyl-4-fluorobenzonitrile] | < 30 | 10.7 |
| COc1cc(Nc2ncc(C(F)(F)F)c(NC[C@@H]3CCCN4CCCC[C@H]34)n2)cc(OC)c1 [Compound 111, 5-(trifluoromethyl)-N4-(((1S,9aR)-octahydro-1H-quinolizin-1-yl)methyl)-N2-(3,5-dimethoxyphenyl)pyrimidine-2,4-diamine] | < 30 | 12.5 |
| O=c1[nH]c2cc(Nc3ncc(C(F)(F)F)c(NC[C@@H]4CCCN5CCCC[C@H]45)n3)ccc2o1 [Compound 112, 5-(4-(((1S,9aR)-octahydro-1H-quinolizin-1-yl)methylamino)-5-(trifluoromethyl)pyrimidin-2-ylamino)benzo[d]oxazol-2(3H)-one] | < 30 | 21.7 |
| COc1ccc(Nc2ncc(C#N)c(NC[C@@H]3CCCN4CCCC[C@H]34)n2)cc1-n1nnnc1C [Compound 113, 4-(((1S,9aR)-octahydro-1H-quinolizin-1-yl)methylamino)-2-(4-methoxy-3-(5-methyl-1H-tetrazol-1-yl)phenylamino)pyrimidine-5-carbonitrile] | < 30 | 0.018 |
| Cc1nnnn1-c1cc(Nc2ncc(C#N)c(NC[C@@H]3CCCN4CCCC[C@H]34)n2)ccc1F [Compound 114, 4-(((1S,9aR)-octahydro-1H-quinolizin-1-yl)methylamino)-2-(4-fluoro-3-(5-methyl-1H-tetrazol-1-yl)phenylamino)pyrimidine-5-carbonitrile] | < 30 | 0.0365 |
| COc1cc(Nc2ncc(C#N)c(NC[C@@H]3CCCN4CCCC[C@H]34)n2)cc(-n2nnnc2C)c1 [Compound 115, 4-(((1S,9aR)-octahydro-1H-quinolizin-1-yl)methylamino)-2-(3-methoxy-5-(5-methyl-1H-tetrazol-1-yl)phenylamino)pyrimidine-5-carbonitrile] | < 30 | 0.0225 |
| N#Cc1cnc(Nc2cc(-n3cnnn3)c(C3CC3)cc2F)nc1NC[C@@H]1CCCN2CCCC[C@H]12 [Compound 116, 4-(((1S,9aR)-octahydro-1H-quinolizin-1-yl)methylamino)-2-(4-cyclopropyl-2-fluoro-5-(1H-tetrazol-1-yl)phenylamino)pyrimidine-5-carbonitrile] | < 30 | 0.0074 |
| Cc1ccc(Nc2ncc(C#N)c(NC[C@@H]3CCCN4CCCC[C@H]34)n2)cc1-n1cnnn1 [Compound 117, 4-(((1S,9aR)-octahydro-1H-quinolizin-1-yl)methylamino)-2-(4-methyl-3-(1H-tetrazol-1-yl)phenylamino)pyrimidine-5-carbonitrile] | < 30 | 0.0117 |
| Cc1nnnn1-c1ccc(F)c(Nc2ncc(C#N)c(NC[C@@H]3CCCN4CCCC[C@H]34)n2)c1 [Compound 118, 4-(((1S,9aR)-octahydro-1H-quinolizin-1-yl)methylamino)-2-(2-fluoro-5-(5-methyl-1H-tetrazol-1-yl)phenylamino)pyrimidine-5-carbonitrile] | < 30 | 0.076 |
| Cc1ccc(Nc2ncc(C#N)c(NC[C@@H]3CCCN4CCCC[C@H]34)n2)cc1C#N [Compound 119, 4-(((1S,9aR)-octahydro-1H-quinolizin-1-yl)methylamino)-2-(3-cyano-4-methylphenylamino)pyrimidine-5-carbonitrile] | < 30 | 0.0357 |
| N#Cc1cc(Nc2ncc(C#N)c(NC[C@@H]3CCCN4CCCC[C@H]34)n2)ccc1C1CC1 [Compound 120, 4-(((1S,9aR)-octahydro-1H-quinolizin-1-yl)methylamino)-2-(3-cyano-4-cyclopropylphenylamino)pyrimidine-5-carbonitrile] | < 30 | 0.0093 |
| COc1cc(Nc2ncc(C#N)c(NC[C@@H]3CCCN4CCCC[C@H]34)n2)cc(OC)c1 [Compound 121, 4-(((1S,9aR)-octahydro-1H-quinolizin-1-yl)methylamino)-2-(3,5-dimethoxyphenylamino)pyrimidine-5-carbonitrile] | < 30 | 0.141 |
| N#Cc1cnc(Nc2ccc(F)c(-n3nnnc3C3CC3)c2)nc1NC[C@@H]1CCCN2CCCC[C@H]12 [Compound 122, 4-(((1S,9aR)-octahydro-1H-quinolizin-1-yl)methylamino)-2-(3-(5-cyclopropyl-1H-tetrazol-1-yl)-4-fluorophenylamino)pyrimidine-5-carbonitrile] | < 30 | 0.0206 |
| N#Cc1cnc(Nc2cc(-n3nnnc3C3CC3)ccc2F)nc1NC[C@@H]1CCCN2CCCC[C@H]12 [Compound 123, 4-(((1S,9aR)-octahydro-1H-quinolizin-1-yl)methylamino)-2-(5-(5-cyclopropyl-1H-tetrazol-1-yl)-2-fluorophenylamino)pyrimidine-5-carbonitrile] | < 30 | 0.0418 |
| N#Cc1cnc(Nc2ccc(Cl)c(-n3nnnc3C3CC3)c2)nc1NC[C@@H]1CCCN2CCCC[C@H]12 [Compound 124, 4-(((1S,9aR)-octahydro-1H-quinolizin-1-yl)methylamino)-2-(4-chloro-3-(5-cyclopropyl-1H-tetrazol-1-yl)phenylamino)pyrimidine-5-carbonitrile] | < 30 | 0.0031 |
| COc1ccc(Nc2ncc(C(N)=O)c(NC[C@@H]3CCCN4CCCC[C@H]34)n2)cc1-n1nnnc1C [Compound 125, 4-(((1S,9aR)-octahydro-1H-quinolizin-1-yl)methylamino)-2-(4-methoxy-3-(5-methyl-1H-tetrazol-1-yl)phenylamino)pyrimidine-5-carboxamide] | < 30 | 1.78 |
| Cc1nnnn1-c1cc(Nc2ncc(C(N)=O)c(NC[C@@H]3CCCN4CCCC[C@H]34)n2)ccc1F [Compound 126, 4-(((1S,9aR)-octahydro-1H-quinolizin-1-yl)methylamino)-2-(4-fluoro-3-(5-methyl-1H-tetrazol-1-yl)phenylamino)pyrimidine-5-carboxamide] | < 30 | 1.6 |
| Cc1nnnn1-c1ccc(F)c(Nc2ncc(C(N)=O)c(NC[C@@H]3CCCN4CCCC[C@H]34)n2)c1 [Compound 127, 4-(((1S,9aR)-octahydro-1H-quinolizin-1-yl)methylamino)-2-(2-fluoro-5-(5-methyl-1H-tetrazol-1-yl)phenylamino)pyrimidine-5-carboxamide] | < 30 | 0.824 |
| Cn1nnn(-c2cc(Nc3ncc(C#N)c(NC[C@@H]4CCCN5CCCC[C@H]45)n3)c(F)cc2O)c1=O [Compound 128, 2-((2-fluoro-4-hydroxy-5-(4-methyl-5-oxo-4,5-dihydro-1H-tetrazol-1-yl)phenyl)amino)-4-((((1S,9aR)-octahydro-2H-quinolizin-1-yl)methyl)amino)pyrimidine-5-carbonitrile] | < 30 | 1.94 |
